The values below come from patent US20100234386A1, “QUINOXALINE DERIVATIVES AS PI3 KINASE INHIBITORS” (priority 2007, published 2010).

For the experiment, the target named is T1, PI3Kα (Homo sapiens, UniProt P42336).
T1 construct: His
T1 sequence (P42336 whole entry, species assumed): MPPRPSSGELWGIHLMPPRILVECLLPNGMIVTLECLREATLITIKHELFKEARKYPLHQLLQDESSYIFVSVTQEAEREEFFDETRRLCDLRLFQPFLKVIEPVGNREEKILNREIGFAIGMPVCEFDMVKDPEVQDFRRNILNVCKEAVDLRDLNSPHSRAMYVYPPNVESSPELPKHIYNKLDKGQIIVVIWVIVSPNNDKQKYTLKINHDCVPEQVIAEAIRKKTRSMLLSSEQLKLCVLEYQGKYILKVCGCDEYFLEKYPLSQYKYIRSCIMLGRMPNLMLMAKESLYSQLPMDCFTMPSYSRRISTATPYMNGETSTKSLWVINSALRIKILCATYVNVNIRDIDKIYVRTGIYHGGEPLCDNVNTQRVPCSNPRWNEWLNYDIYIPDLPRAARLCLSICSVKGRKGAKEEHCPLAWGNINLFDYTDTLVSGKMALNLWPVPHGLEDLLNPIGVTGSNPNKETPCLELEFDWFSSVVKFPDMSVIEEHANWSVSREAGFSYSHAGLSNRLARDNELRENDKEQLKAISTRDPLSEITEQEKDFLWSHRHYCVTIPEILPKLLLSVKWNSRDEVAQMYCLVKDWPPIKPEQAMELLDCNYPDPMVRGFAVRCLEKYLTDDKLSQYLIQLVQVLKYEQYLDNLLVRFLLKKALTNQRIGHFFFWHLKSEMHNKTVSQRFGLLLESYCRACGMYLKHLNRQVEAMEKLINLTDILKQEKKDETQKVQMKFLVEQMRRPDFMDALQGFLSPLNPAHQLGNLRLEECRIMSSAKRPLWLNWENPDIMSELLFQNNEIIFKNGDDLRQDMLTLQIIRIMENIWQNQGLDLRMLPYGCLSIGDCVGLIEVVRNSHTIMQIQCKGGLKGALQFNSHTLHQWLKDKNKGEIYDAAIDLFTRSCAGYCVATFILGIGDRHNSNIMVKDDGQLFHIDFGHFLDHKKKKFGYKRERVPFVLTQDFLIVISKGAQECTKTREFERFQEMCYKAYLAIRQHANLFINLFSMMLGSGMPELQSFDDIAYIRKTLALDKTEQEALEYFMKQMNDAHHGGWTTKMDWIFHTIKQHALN
T1 sequence (P27986 whole entry partner, species assumed): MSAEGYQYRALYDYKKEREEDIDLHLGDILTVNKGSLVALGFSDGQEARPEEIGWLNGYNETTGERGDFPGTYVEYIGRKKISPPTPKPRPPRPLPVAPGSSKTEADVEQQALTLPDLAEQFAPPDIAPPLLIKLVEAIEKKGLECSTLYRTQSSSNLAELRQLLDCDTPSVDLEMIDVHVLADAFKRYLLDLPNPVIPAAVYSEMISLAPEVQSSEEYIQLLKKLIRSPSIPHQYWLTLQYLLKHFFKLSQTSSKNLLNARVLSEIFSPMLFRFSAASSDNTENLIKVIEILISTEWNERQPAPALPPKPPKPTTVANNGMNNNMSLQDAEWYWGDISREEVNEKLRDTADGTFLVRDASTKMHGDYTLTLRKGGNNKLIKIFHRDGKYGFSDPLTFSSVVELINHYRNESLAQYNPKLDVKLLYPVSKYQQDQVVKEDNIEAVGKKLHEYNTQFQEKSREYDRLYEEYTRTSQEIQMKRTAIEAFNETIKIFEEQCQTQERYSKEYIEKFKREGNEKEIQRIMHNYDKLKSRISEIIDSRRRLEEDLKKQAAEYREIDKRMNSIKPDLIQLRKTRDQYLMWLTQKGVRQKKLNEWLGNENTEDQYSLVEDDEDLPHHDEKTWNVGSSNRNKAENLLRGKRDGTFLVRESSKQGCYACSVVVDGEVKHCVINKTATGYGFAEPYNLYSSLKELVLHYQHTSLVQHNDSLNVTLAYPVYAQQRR
Nature of the experiment: PI3K Alpha Leadseeker SPA Assay. The experiment is classed as biochemical. Particulars: in at least one experimental run; read-out: IC50 value against PI3Kα. From the text:
PI3K Alpha Leadseeker SPA Assay
SPA imaging beads are microspheres containing scintillant which emit light in the red region of the visible spectrum. As a result, these beads are ideally suited to use with a CCD imager such as the Viewlux. The Leadseeker beads used in this system are polystyrene beads that have been coupled with polyethyleneimine. When added to the assay mixture, the beads absorb both the substrate (PIP2) and product (PIP3). Adsorbed P^33-PIP3 will cause an increase in signal, measured as ADUs (analog to digital units). This protocol details the use of the PEI-PS Leadseeker beads for assays using His-p110/p85 PI3K alpha.
The compounds are serially diluted (3-fold in 100% DMSO) across the plate from column 1 to column 12 and column 13 to column 24 and leave column 6 and 18 containing only DMSO to yield 11 concentrations for each test compound.
The assay buffer contains MOPS (pH 6.5), CHAPS, and DTT. PI3K alpha and PIP2 (L-alpha-D-myo-Phosphatidylinositol 4,5-bisphosphate[PI(4,5)P2]3-O-phospho linked, D(+)-sn-1,2-di-O-octanoylglyceryl, CellSignals # 901) are mixed and incubated in the plate with compound for 30 min prior to starting the reaction with the addition of P^33-ATP and MgCl2 (reagents added using Zoom). […] PEI-PS Leadseeker beads in PBS/EDTA/CHAPS are added (by Multidrop) to quench the reaction, and the plates are allowed to incubate for at least one hour (typically overnight) before centrifugation. The signal is determined using a Viewlux detector and is then imported into curve fitting software (Activity Base) for construction of concentration response curves. The percent inhibition of activity is calculated relative to high controls (C1, 0.1 μl DMSO in column 6, rows A-P)) and low controls (C2, 5 μl of 40 uM PIP2 in buffer in column 18, rows A-P) using, 100*(1−(U1−C2)/(C1−C2)). The concentration of test compound yielding 50% inhibition is determined using the equation, y=((Vmax*x)/(K+x))+Y2, where “K” was equal to the […]. The IC50 values are converted to pIC50 values, i.e., −log IC50 in Molar concentration.
What is called IC50 is the point on the concentration scale where inhibition reaches its midpoint. `c1cc2ncc(N3CCOCC3)nc2cc1-c1cnc2[nH]ncc2c1` [Example 1, 2-(4-morpholinyl)-7-(1H-pyrazolo[3,4-b]pyridin-5-yl)quinoxaline]: the half-maximal inhibitory concentration (IC50) turned out to be 5 nM. `COc1ccc(-c2ccc3ncc(N4CCOCC4)nc3c2)cn1` [Example 2]: the IC50 amounted to 100 nM. The same measure for `c1cc2cc(-c3ccc4ncc(N5CCOCC5)nc4c3)cnc2[nH]1` [Example 4]: 50 nM. With `CCNc1cnc2ccc(-c3cnc(N)c(S(=O)(=O)N(C)C)c3)cc2n1` [Example 19], the IC50 came to 8 nM. As to `NS(=O)(=O)c1cncc(-c2ccc3ncc(-c4ccncc4)nc3c2)c1` [Example 70], the IC50 was 200 nM.
